Assay results published in PMC11117716 (Biomolecules, 2024).

Columns and labels:
[1] = Plasma pharmacokinetics after oral Posiphen in CD-1 mice (LC-MS/MS); conditions: for Mean plasma concentration: CD-1 mice, Posiphen 65 mg/kg
Method: (§1) The animal PKs were taken from multiple GLP toxicology studies, biomarker studies, and efficacy studies. […] Sample size (n) represents the number of animals at each time point of sample collection. […] The dose volume was determined according to animals’ weight collected on the dosing day.
(§2) In mice, blood samples were collected via the saphenous vein or other suitable blood collection site into a microcentrifuge tube containing the anti-coagulant K2-EDTA on wet ice and processed for plasma. For samples collected within the first hour of dosing, ±1 min is acceptable, while for all other timepoints, samples were taken within 5% of the scheduled time and are not considered as protocol deviations. Plasma samples were centrifuged (3200× g for 10 min at 4 °C) within an hour of collection. CSF samples were collected with 3 μL volume per time point, frozen on dry ice, and stored at −60 °C for further analysis. For brain collection in mice, animals were euthanized using CO2 inhalation. Whole brain was collected, washed in cold saline, dried, and homogenized immediately […]. Homogenizing buffer MeOH/15 mM PBS (1:2, v:v) was used at a ratio of 1:9 (1 g of tissue with 9 mL of buffer; the dilution ratio is 10).
(§3) In humans, the bioanalytical method was performed in accordance with current FDA, Industry Guidelines, and OECD Principles. […] The sample analysis was conducted in accordance with current GCP and GLP principles, and the results were presented for pharmacokinetic profiling (Absorption Systems, Exton, PA, USA). Calibration ranges for each analyte ranged from 1000 ng/mL to 1 ng/mL (or ng/g for brain) in plasma, brain, and CSF matrices. The detection limit was 0.025 ng/mL. The following PK parameters were collected for the purpose of this manuscript: maximum concentration (Cmax), time to maximum drug concentration (Tmax), half-life (T1/2), and the Area Under the Curve (AUC).
Blood plasma samples were collected at various time points within the initial 8 h following administration (6 h for humans). Plasma concentrations (ng/mL) were measured over the 8 h observation window to characterize the maximum concentration (Cmax), the time to peak drug concentration (Tmax), the half-life (T1/2), and the Area Under the Curve (AUC).

[2] = in vivo; conditions: CD-1, mouse; for T1/2 / Tmax / Tmax (time of Cmax) / Cmax: po; for Cmax: 65 mg/kg
Method: as §1, §2, §3

[3] = clinical; conditions: human, in vivo
Method: This paper describes data from multiple studies. The healthy volunteers’ data come from the single ascending and multiple ascending dose study, whereas Alzheimer’s and Parkinson’s patients are represented by the MCI NCT01072812 study, ADCS NCT02925650 study, and AD/PD NCT04524351 study. The evaluations are based on a sample size of n = 4 for each time point.
In humans, plasma and lumbar CSF samples were collected via an indwelling catheter over 12 h (at 0, 1, 1.5, 2, 3, 4, 6, 8, and 12 h) initiated at the same time of day, 1 day prior to the start of dosing, to obtain time-dependent baseline control data, and then at the exact same times immediately after the last dose was administered. Samples were frozen and then stored at −80 °C.
as §3

[4] = Plasma pharmacokinetics after oral Posiphen in Sprague Dawley rats (LC-MS/MS); format: in vivo, rat
Method: In rats and dogs, blood samples were centrifuged, and the resultant plasma was separated, and 200 µL (rat) or 400 µL (dog) of plasma was transferred to uniquely labeled pre-chilled polypropylene tubes containing 5 µL (rat) or 10 µL (dog) Dichlorvos spiking solution (nominal concentration of 0.82 mg/mL in MeOH/Water, 20/80, v/v).
The detection limit was 0.025 ng/mL.

[5] = human; side effects nausea and vomiting; cited from earlier work
[6] = both, CD-1, mouse, in vivo, po, 65 mg/kg
[7] = both sexes, Sprague Dawley, rat, in vivo, 40 mg/kg
[8] = both sexes, Sprague Dawley, rat, in vivo, po, 40 mg/kg

`CN1CC[C@]2(C)c3cc(OC(=O)Nc4ccccc4)ccc3N(C)C12.O=C(O)C(O)C(O)C(=O)O` (stereo partly drawn) [Posiphen, (3aR)-1,3a, 8-trimethyl-1,2,3,3a, 8,8a-hexahydropyrrolo (2,3-b) indol-5-yl phenylcarbamate tartrate] gave a Mean plasma concentration ([1]; 0.25 h) of 937 ng/mL, a Mean plasma concentration ([1]; 0.5 h) of 939 ng/mL and a Mean plasma concentration ([1]; 1 h) of 610 ng/mL. The Mean plasma concentration ([1]; 2 h) was 571 ng/mL, the Mean plasma concentration ([1]; 4 h) was 19.5 ng/mL and the “AUC(0-t)” value ([1]; Table 2, mouse plasma, oral Posiphen) was 1707 ng·h/mL. For the same molecule, the AUC(0-t) [1, 6] was 1710 ng·h/mL, the Cmax [1, 6] was 939 ng/mL and the half-life ([1]; both, CD-1, mouse, in vivo, po, 65 mg/kg, T1/2, mouse plasma, Posiphen PO 65 mg/kg, n = 7) was 0.56 h. It also gave a Tmax ([1]; both, CD-1, mouse, in vivo, po, 65 mg/kg, Tmax, mouse plasma, Posiphen PO 65 mg/kg, n = 7) of less than 1 h, a T1/2 ([1]; mouse plasma, Posiphen PO 65 mg/kg, n = 7, 65 mg/kg) of 0.562 h and a Kp [2] of 5.04. It also gave a Kp ([2]; in vivo) of 0.17, a T1/2 ([2]; in vivo) of 0.5 h and a Tmax ([2]; in vivo) of 2.32 h. The “Tmax (time of Cmax)” value ([2]; in vivo) was 0.5 h, the Cmax ([2]; in vivo, Cmax) was 163 ng/mL and the T1/2 [2] was 0.5 h. For the same molecule, the Tmax [2] was 0.74 h, the “Tmax (time of Cmax)” value [2] was 0.5 h and the Cmax [2] was 4740 ng/mL. The Kp [3] was 0.02, the half-life [3] was greater than 12 h and the AUC(0-t) ([3]; po) was 20.7 ng·h/mL. It also gave a Cmax ([3]; po) of 2.23 ng/mL, a T1/2 ([3]; po) of 3 h and a Tmax ([3]; po) of 17.26 h. The “Tmax (time of Cmax)” value ([3]; po) was 3 h, the concentration at 0.25 h [4, 7] was 1090 ng/mL and the concentration at 1 h [4, 7] was 771 ng/mL. The concentration at 2 h [4, 7] was 381 ng/mL, the concentration at 4 h [4, 7] was 243 ng/mL and the concentration at 8 h [4, 7] was 234 ng/mL. For the same molecule, the Cmax [4, 8] was 1180 ng/mL, the half-life [4, 8] was 1.03 h and the Tmax ([4]; both sexes, Sprague Dawley, rat, in vivo, po, 40 mg/kg, rat plasma, Posiphen PO 40 mg/kg, n = 6) was less than 1 h. The AUC(0-t) ([4]; both sexes, Sprague Dawley, rat, in vivo, po, 40 mg/kg, read-out: AUC (0–8 h)) was 1140 ng·h/mL, the “Primary compound in plasma” value ([4]; rat plasma) was “primary compound” and the Maximum tolerated dose [5] was 160 mg.
